Measured values reported in US4323602A, “Water repellent and preservative for wood products” (priority 1980, dated 1982).

System: Lenzites trabea (Madison strain 617)
Assay: NWMA Soil-Block Test (fungicide effectiveness, wood decay)
Conditions: 5.4 times the threshold concentration (NWMA)
Protocol: The product of Table 2, diluted with four parts water, was tested as a fungicide using a standard National Woodwork Manufacturers Association (NWMA) Soil-Block Test to determine and compare effectiveness with a Standard Solvent Based 5% Penta treating solution. This test method is used to determine the minimum amount of preservative that is effective in preventing decay of selected species of wood by selected fungi under optimum laboratory conditions.
The test method may be briefly summarized as follows: Conditioned blocks of wood are impregnated with solutions of a preservative in water or organic solvent to form one or more series of gradient retentions of the preservative in the blocks. After periods of weathering, the impregnated blocks are exposed to the wood-destroying fungus, Lenzites trabea (Madison strain 617). The minimum amount of preservative which protects the impregnated blocks against decay by the fungus is defined as the threshold retention for that organism. Failure to protect is evidenced by loss of wood from the treated wood blocks, as indicated by a loss in weight.
The threshold retention expressed in pounds of treating solution per cubic foot of wood represents the minimum amount of preservative necessary to protect wood from decay. […]

Q: Which “Use Concentration” value does the source give for CCCCNC(=O)OCC#CI [Example 3-Iodo, 3-iodo-2-propynyl butyl carbamate] here?
A: The value was 0.27%.
